Laboratory results from a melting point compilation (Tetko et al.; mined from patent text by program, amines drawn as free bases though some values may be those of a salt).

Row | Compound | melting point [°C]
1 | CC(=O)Nc1nc2ccc(Cl)nc2c(=O)[nH]1 | 317 to 319
2 | Cc1cc(S(=O)(=O)c2c[nH]c3ccc(F)cc23)ccc1C1CCN(C)C1 (stereo not drawn) | 86.5 to 93.5
3 | CCOc1cc(C(C)(c2cc(OCC)c(O)c(OCC)c2)c2cc(OCC)c(O)c(OCC)c2)cc(OCC)c1O | 78
4 | Nc1nc(Cl)cc(OC(F)F)n1 | 118 to 119
5 | CCCCc1nc(=O)n2ncc(Br)c2[nH]1 | 188
6 | ClC1=Nc2cc(Cl)ccc2Sc2cscc21 | 234 to 235
7 | O=C(CCCCCCCCCCCNC(=O)OCc1ccccc1)OC(=O)CCCCCCCCCCCNC(=O)OCc1ccccc1 | 72 to 73
8 | Fc1cccc(F)c1C1=NCC(=S)Nc2ccc(Cl)cc21 | 222 to 224
9 | O=C1CC[C@@H](CI)N1Cc1ccccc1 | 92 to 94
10 | O=C(O)C(F)Oc1ccccc1 (stereo not drawn) | 61 to 63
11 | CCOC(=O)c1nc(C)n2c1CN=C(c1ccccn1)c1cc(Br)ccc1-2 | 240 to 243
12 | CSc1[nH]c(C(C)C)nc(=O)c1C#N | > 260
13 | CCCc1nn(C)c2c(=O)[nH]c(-c3cc(-n4ccnc4)ccc3OCC)nc12 | 193 to 194
14 | Cc1ccc(N2CCN(Cc3n[nH]c4c(Cl)cccc34)CC2)cc1 | 187 to 188
15 | CC(C)(CO)COc1ccc(N)cc1C#N | 194 to 196
16 | CCCc1c(OCCCCCc2nnn[nH]2)ccc(C(C)=O)c1O | 95 to 96
17 | COc1cc(CCC2=NNC(=O)CC2)cc(OC)c1OC | 116 to 117
18 | Cn1nnnc1SCC1=C(C(=O)OCOC(=O)C(C)(C)C)N2C(=O)C(NC(=O)Cc3csc(=O)s3)C2SC1 (stereo not drawn) | 100
19 | CC(C)(C)OC(=O)N1CCN(C(=O)NNC(=O)OCc2ccccc2)CC1 | 194 to 196
20 | CC(C)(C)c1cc(-c2csc(CO)n2)cc(C(C)(C)C)c1O | 126 to 127
21 | O=C1CC(c2cccc(-n3ccnc3)c2)=Nc2ccc(C#Cc3ccc(F)cc3)cc2N1 | 216 to 218
22 | CCCCc1nc(N)c(C#N)[nH]1 | 115 to 116
23 | COC(=O)c1c(NC(=O)C(C)(C)C)c(Cl)cc(OC)c1OC | 100 to 102
24 | Oc1cc(O)c2c(c1)Oc1ccc(Br)cc1CC2 | 174 to 176
25 | COc1cc(N)cc(C#N)c1 | 81 to 85
26 | COC(=O)CCc1cc(NC(=O)c2ccc(C(=O)Nc3cc(CCC(=O)OC)cc(C(C)(C)C)c3O)s2)c(O)c(C(C)(C)C)c1 | 172 to 173

Row | Compound | melting point [°C]
27 | Cc1c(N2C(=O)C[C@](C)(O)[C@@H]2C)ccc(C#N)c1F | 138 to 141
28 | Cc1cc(C)c2nc(NCC3COC(C)(C)O3)n(Cc3nc(C)ccc3O)c2c1 (stereo not drawn) | 225
29 | CC(=O)NCc1cc2n(n1)-c1ccc([N+](=O)[O-])cc1C(c1ccccc1)=NC2 | 208 to 211
30 | CN1CC(CO)Cc2ccc(NC(=O)/C=C/c3ccc(C(F)(F)F)cc3)cc21 (stereo not drawn) | 167 to 169
31 | Cc1cc(-c2[nH]c3ccccc3c2C)cc(C)c1O | 143 to 144
32 | NC(=O)CCCCC1CCCCC1 | 121 to 122
33 | COC(=O)NNC(=O)C=Cc1ccccc1 | 165
34 | CCOC(=O)c1cnn(-c2cc(C(=O)Nc3cc(C(C)(C)C)cc(NS(C)(=O)=O)c3OC)ccc2C)c1 | 125 to 130
35 | Cc1ccsc1C(=COCCN1CCC[C@@H](C(=O)O)C1)c1sccc1C | 55 to 70
36 | O=c1c(Br)c(CCC2CC2)nc2ccccn12 | 162 to 164
37 | CNc1ccc(C)cc1C(=O)Cc1nnnn1C | 141 to 143
38 | CSc1nn(-c2c(Cl)cc(C(F)(F)F)cc2Cl)nc1C | 38 to 40
39 | O=C1OCc2ncccc21 | 113 to 118
40 | CCS(=O)c1ccc(-c2coc3ccc(-c4nnc(C)o4)cc23)cc1F (stereo not drawn) | 187 to 188
41 | CCOc1cc(-c2c(C(=O)OC)c(C(=O)OC)c(O)c3cc(OC)c(OC)c(OC)c23)ccc1OC | 158
42 | CC(=O)N[C@@H](C)COC1CCN(c2nc3cc(OCC4CCC4)ccc3o2)CC1 | 109 to 110
43 | CCCCC1=CC(O)(C(Br)Br)N(c2ccccc2)C1=O (stereo not drawn) | 96 to 98
44 | Fc1ccc(Nc2ncnc3cnc(N4CCC(N5CCCC5)CC4)nc23)cc1Cl | 202 to 204
45 | CCOC(=O)CN1CCC(CNC(=O)c2cc(Cl)c(N)[nH]c2=O)CC1 | 162 to 164
46 | COC1=CC(=O)C(O)=C(CCCCCCC/C=C\CCCCCCCC2=C(O)C(=O)C(C)=C(OC)C2=O)C1=O | 88 to 90
47 | CC1(CNC(=O)OCc2ccccc2)Cn2cc([N+](=O)[O-])nc2O1 (stereo not drawn) | 171 to 172
48 | COc1cccc(C2=CC(=O)N(C)C2=O)c1 | 138 to 146
49 | Cn1cnc2nc(NC(=O)c3ccccc3)nn2c1=S | 273 to 276
50 | O=c1oc2ccccc2n1CCCCl | 62 to 64
51 | CCCCN(CCCC)CCCOc1ccc(S(=O)(=O)c2cn[nH]c2C(C)C)cc1 | 53

The next lines start with the values.

Row | melting point [°C] | Compound
52 | 164 | CC(C)(C)c1ccccc1N1CCN(C(=O)C2CCC(=O)N2Cc2ccccc2)CC1 (stereo not drawn)
53 | 223 to 224 | O=c1[nH]c2cc(F)c(NCC3COc4ccccc4C3)cc2o1 (stereo not drawn)
54 | 86 to 89 | CCOC(=NC(=O)Nc1ccc(OC(F)(F)F)cc1)c1ccccc1Cl
55 | 140 to 160 | COC(=O)c1ccccc1-c1ccc(CNc2nc(=O)[nH]c3ccccc23)cc1
56 | 163 to 164 | O=C(O)CCN(C1(C(=O)NO)CCCC1)S(=O)(=O)c1ccc(-c2ccc(F)cc2)cc1
57 | 210 | COC(=O)c1cc(C(=O)c2c(C)c(NC(=O)c3cccc(OC(C)=O)c3)c3ccccn23)ccc1N
58 | 170 to 172 | COc1ccc(C(=O)[C@H]2C[C@H]2C(=O)O)cc1 (relative stereo)
59 | 206 to 208 | O=c1nc(-c2ccccc2O)oc2ccccc12
60 | 150 to 154 | CC(C)C[C@H](NC(=O)c1ccccc1)C(=O)N[C@@H](C(C)C)[C@@H](O)c1c(-c2ccccc2)c1=O
61 | 137 to 138 | CCOc1ccccc1CN1CCC(=O)C(C(c2ccc(F)cc2)c2ccc(F)cc2)C1 (stereo not drawn)
62 | 197 to 199 | CC(=O)On1cc(-c2ccccc2)c(=O)c(-c2ccccc2)c1
63 | 191 to 193 | CC1=C(C(=O)NC(C)(C)C)C(c2ccccc2Cl)C(C(=O)NC(C)C)=C(COCCn2c(C)nc3ccccc32)N1 (stereo not drawn)
64 | 147 | CCc1ccccc1S(=O)(=O)N(OCCF)C(=O)n1nc(C)n(C2CC2)c1=O
65 | 137 | CCCCN1C=CC(N2CCC(F)(c3ccccc3)C(Cl)C2=O)=CC1 (stereo not drawn)
66 | 155 to 157 | CCCCc1nn(-c2cc(N)ccc2Cl)c(=O)n1Cc1ccc(-c2ccccc2S(=O)(=O)NC(=O)c2ccccc2Cl)cc1
67 | 102 to 104 | COc1ncc(CN2C(=O)C3(COc4cc5c(cc43)OCCO5)c3ccccc32)cn1 (stereo not drawn)
68 | 233 to 234 | NNC(=O)c1ccnc2[nH]c(CCc3ccccc3)cc12
69 | 126 to 128 | COc1cc(C(=O)NC2OCC(c3ccccc3)N3CCCCC23)cc(OC)c1OC (stereo not drawn)
70 | 213 to 218 | CCOC(=O)C1=C(C)Nc2cc(=O)[nH]n2C1c1cccc(Cl)c1Cl (stereo not drawn)
71 | 190 to 191 | CC(C)(C)C(=O)OCOC(=O)c1cn(CC(F)(F)F)c2cc3c(cc2c1=O)OCO3
72 | 77 to 78 | CCOC(=O)Cc1cccc(C(=O)c2ccccc2)c1N
73 | 234 to 236 | c1ccc(-c2n[nH]c3c2Cc2ccccc2-3)cc1
74 | 130 to 135 | CC1(C)Oc2ccc(C#N)cc2C(NC(=O)Nc2cccc(-c3ncco3)c2)C1O (stereo not drawn)
75 | 179 to 182 | COC(=O)c1cscc1NC(=O)COc1ccc(Cl)c(Cl)c1

Row | melting point [°C] | Compound
76 | > 250 | CCc1cnc(N2CCN(C(=O)c3ccccc3NC3(c4ccccc4)NC=Nc4ccccc43)CC2)nc1 (stereo not drawn)
77 | 47 | CCCCCCCCCCCCc1ccc(N=C(C)c2ccccc2)cc1
78 | 133 to 134 | Cc1ccc(C(Cl)=NNc2ccccc2)cc1
79 | 53 to 54 | CC1CC(=O)Nc2nc(OCCCCN3CCN(c4cccc(Cl)c4Cl)CC3)ccc21 (stereo not drawn)
80 | 53 to 54 | CCCOC(=O)CCC(=O)c1ccc(-c2ccccc2F)cc1
81 | 237 to 239 | COc1cc(C=c2[nH]c(=O)c(=Cc3ccc(OCc4ccccc4)cn3)[nH]c2=O)cc(OC)c1
82 | 106 to 107 | Cc1c(-c2ccc(OCc3ccccc3)cc2)n(Cc2ccc(OCCN3CCCCCC3)cc2)c2ccc(OCc3ccccc3)cc12
83 | 88 to 89 | COc1ccc(CCCC(=O)CCC(=O)O)cc1
84 | 167 | COc1ccc(CCNC(=O)C(=O)Nc2cccnc2)cc1OC1CCCC1
85 | 211 to 213 | CCCn1ncnc1COc1nn2c(-c3ccccc3)nnc2cc1-c1ccccc1
86 | 70 | CC#CCN(c1nc(-c2ccc(OC)cc2Cl)c(C)s1)C(COC)c1ccccc1 (stereo not drawn)
87 | 250 to 251 | O=C(O)c1cccc(-c2cc(-c3ccccc3)on2)c1
88 | 105 to 107 | CCOC(=O)COc1ccc(C(C)=O)cc1NC(=O)c1ccc(OCCCCc2ccccc2)cc1
89 | 126 to 128 | O=C(CCc1ccccc1)c1ccc2n1Cc1ccccc1N(C(=O)COc1ccc(Cl)cc1)C2
90 | 178 to 179 | COc1ccc(S(=O)(=O)n2ccc3ccnc(-c4ccc([N+](=O)[O-])cc4)c32)cc1
91 | 169 to 170 | CCCOc1ccc2c(c1)C(c1ccccc1OCC(=O)O)C(C(=O)O)C2c1ccc2c(c1)OCO2 (stereo not drawn)
92 | 160 to 162 | O=Cc1cc(Br)c(O)c(OCc2ccccc2)c1
93 | 180 to 183 | CCCn1cc(-c2nc(C#N)c(N)nc2-c2ccccc2)ccc1=O
94 | 153 to 155 | CCC(C(=O)O)N(C(=O)c1cnn(-c2ccc(F)cc2)c1)c1ccc(OCC(C)(C)C)c(C#N)c1 (stereo not drawn)
95 | > 250 | CC(C)OC(=O)CCc1ccc(-n2ccn(-c3ccc(C(=N)N)cc3)c2=O)cc1
96 | 120 to 122 | O=C(NCCCN1CCOCC1)c1ccccc1C(c1ccc(O)cc1)c1ccc(O)cc1
97 | 83 to 88 | O=C(NCCCCCC(=O)C(F)(F)F)OCC1c2ccccc2-c2ccccc21
98 | 203 to 204 | CCCCOc1c(CNC(=O)OCC2c3ccccc3-c3ccccc32)n(CC(C)C)c(=O)c2ccc(-c3nc(C)c(C(=O)OCC)s3)cc12
